Reference: ChEMBL document CHEMBL3045985, “Three-dimensional common-feature hypotheses for hypoglycemic flavonyl-2,4-thiazolidinedione derivatives” (2010)

System: INS1
Assay: Hypoglycemic activity in Rattus norvegicus (rat) INS1 cells assessed as insulin release at 5.6 mmol/l after 90 min (reference value: 62.96 +/- 5.68 to 69.70 +/- 4.98 %)
Assay type: functional

Compound	Activity [%]
OC[C@H]1OC(O)[C@H](O)[C@@H](O)[C@@H]1O (stereo partly drawn) [DEXTROSE]	100

System: INS1
Assay: Hypoglycemic activity in Rattus norvegicus (rat) INS1 cells assessed as glucose-mediated insulin release at 10 umol/l after 90 min (reference value: 62.96 +/- 5.68 to 69.70 +/- 4.98 %)
Assay type: functional

Compound	Activity [%]
CN(CCOc1ccc(CC2SC(=O)NC2=O)cc1)c1ccccn1 (stereo not drawn) [ROSIGLITAZONE]	116

System: INS1
Assay: Hypoglycemic activity in Rattus norvegicus (rat) INS1 cells assessed as glucose-mediated insulin release at 1 ug/ml after 90 min (reference value: 62.96 +/- 5.68 to 69.70 +/- 4.98 %)
Assay type: functional

Compound	Activity [%]
COc1ccc(Cl)cc1C(=O)NCCc1ccc(S(=O)(=O)NC(=O)NC2CCCCC2)cc1 [GLYBURIDE]	210.4

System: INS1
Assay: Hypoglycemic activity in Rattus norvegicus (rat) INS1 cells assessed as glucose-mediated insulin release after 90 min (reference value: 62.96 +/- 5.68 to 69.70 +/- 4.98 %)
Assay type: functional

Compound	Activity [%]
O=C1NC(=S)N/C1=C/c1cccc(-c2cc(=O)c3ccccc3o2)c1	247.1
CN1C(=O)/C(=C\c2cccc(-c3cc(=O)c4ccccc4o3)c2)N(C)C1=S	102.8
CN1C(=O)S/C(=C\c2ccc(-c3cc(=O)c4ccccc4o3)cc2)C1=O	145.1
CN1C(=O)/C(=C/c2ccc(-c3cc(=O)c4ccccc4o3)cc2)N(C)C1=S	114.3
O=C1NC(=O)/C(=C/c2ccc(-c3cc(=O)c4ccccc4o3)cc2)N1	105.1
CCN1C(=O)/C(=C/c2ccc(-c3cc(=O)c4ccccc4o3)cc2)N(CC)C1=O	127.1
CCN1C(=O)/C(=C/c2ccc(-c3cc(=O)c4ccccc4o3)cc2)N(CC)C1=S	96.27
O=C1NC(=O)/C(=C/c2ccc(-c3cc(=O)c4ccccc4o3)cc2)S1	55.7
CCN1C(=O)S/C(=C\c2ccc(-c3cc(=O)c4ccccc4o3)cc2)C1=O	117.9
CCN1C(=O)/C(=C\c2cccc(-c3cc(=O)c4ccccc4o3)c2)NC1=S	129.6
CN1C(=O)S/C(=C/c2cccc(-c3cc(=O)c4ccccc4o3)c2)C1=O	134.9
O=C1NC(=O)/C(=C\c2cccc(-c3cc(=O)c4ccccc4o3)c2)N1	103.3
CCN1C(=O)S/C(=C/c2cccc(-c3cc(=O)c4ccccc4o3)c2)C1=O	299
O=C1NC(=O)C(Cc2cccc(-c3cc(=O)c4ccccc4o3)c2)S1 (stereo not drawn)	69.89
O=C1NC(=O)C(Cc2ccc(-c3cc(=O)c4ccccc4o3)cc2)S1 (stereo not drawn)	135.5
CN1C(=O)/C(=C\c2cccc(-c3cc(=O)c4ccccc4o3)c2)N(C)C1=O	218.3
CCN1C(=O)N/C(=C/c2cccc(-c3cc(=O)c4ccccc4o3)c2)C1=O	167.8
O=C1NC(=O)/C(=C\c2cccc(-c3cc(=O)c4ccccc4o3)c2)S1	79.76
CN1C(=O)/C(=C/c2ccc(-c3cc(=O)c4ccccc4o3)cc2)N(C)C1=O	103.4
O=C1NC(=S)N/C1=C\c1ccc(-c2cc(=O)c3ccccc3o2)cc1	130.3
